# From US6613797B2, “Xanthone analogs for treating infectious diseases and complexation of heme and porphyrins” (Interlab, Inc., priority 1999, dated 2003)
# Like-named read-outs stand apart in the source and are kept apart here.
# Tests used:
# [1] = tested on: Plasmodium falciparum D6 strain; test: in vitro anti-malarial activity, [3H]-ethanolamine incorporation method; assay type: cell-based
# Procedure: Cultures were maintained at 37° C. in a gas mixture of 5% oxygen, 5% CO2, and 90% nitrogen.
# [^3H]-ethanolamine was obtained from American Radiolabeled Chemicals, Inc., St. Louis, Mo. Experiments were conducted in 96 well plates in a total volume of 200 μl at a final red blood cell concentration of 2% (v/v). An initial parasitemia of 0.2 to 0.5% was attained by addition of normal uninfected red cells. Radiolabeled ethanolamine was added after 48 hours of incubation and the experiment was terminated after 72 hours by collecting the cells onto glass fiber filters with an automated multiwell harvester.
# Stock solutions of the various Formula X1 compounds were dissolved in DMSO at a concentration of 1 mM and diluted in complete medium (including 10% human serum) to provide 10X stock concentrations in the range of 1 to 10,000 nM.
# Candida albicans = test: anti-Candida activity, MIC by visual inspection; assay type: cell-based; details: conversion of the MIC, read-out: IC50 corresponding to the MIC against Candida albicans
# Procedure: The minimum inhibitory concentration (MIC) of formula X1 compounds against a clinical isolate of Candida albicans was determined using the following method. […] The determination of this concentration is made by visual inspection; there is no visible growth in a tube containing the MIC of the formula X1 compound whereas visible growth is present in tubes containing sub-MIC concentrations of the compound.
# Candida albicans was grown to midlog-phase in Luria-Bertani broth (10 grams Bacto-tryptone, 5 grams Bacto-yeast extract and 10 grams NaCl per liter) and then inoculated into sterile test tubes containing LB broth to an initial density of 10^3/ml. The formula X1 compound to be tested is dissolved in dimethylsulfoxide (DMSO) at a concentration of 1 mM and added to each tube at serial dilutions (1 μM, 10 μM, 25 μM, 50 μM, 100 μM and 0 μM). The tubes are incubated at 35° C. for 15-18 hours and then visually inspected.
# [2] = in vitro heme aggregation (polymerization) assay; assay type: biochemical
# Procedure: Heme polymerization was carried out in 0.02 M phosphate buffer, pH 5.2 at 37° C. in the absence of protenis. A 10 mM stock solution of hemin chloride in 0.1 M NaOH wa prepared freshly and incuated at 37° C. for at least 1 hour to effect complete dissolution. Xanthones were dissolved in dimethylformamide at 10 mM and diluted into 10 ml of pre-warmed phosphate solution to a final concentraion of 25 μm. […] 25 μl of dimethylformaide wa added to the control smample. After 7, 30, 60, 120 and 190 minutes of incugation at 37° C., a 1 ml aliquot was withdraqwn, tranferred into an Eppendorf tube, and centrifugted at 14,000 g for 2 minutes at room temperature to pellet the precipitate. The soluble fraction was then transferred to a semi-microcuvette (polymethyacrylate, VER), and its absoprtion was measured at 360 nm against a blank of the test compound in buffer.
# The reactions were allowed to proceed for 2 hours in a 37° C. waterbath. After incubation, the polymer was pelleted as described above and the absorption (360 nm) of each soluble fraction was measured against a blank containing the drug alone in buffer. The IC50 values were determined by nonlinear regression analysis of the dose-response curves of percent inhibition of heme polymerization vs. drug concentration.
# [3] = tested on: intracellular amastigotes of Leishmania mexicana M379; test: intracellular amastigote assay in infected murine macrophages; assay type: cell-based
# Procedure: Bone-marrow-derived macrophages (BALB/c) were cultured with L-cell-conditioned medium for 5-7 days at 35° C. After this period of incubation, mature macrophages were transferred to Labtek 4-chamber slides containing DMEM (Dulbecco's Modified Eagle's Medium) and 10% fetal calf serum. 50,000 cells were seeded in each chamber and allowed to attach overnight at 37° C. in a humidified incubator flushed with 5% CO2. On the next day the macrophages were infected at an MOI (Multiplicity of Infection) of 10:1 with stationary promastigotes of L. mexicana. After twenty-four hours, the medium was removed and fresh medium was added containing various drug concentrations (0-5 μM). Following incubation for an additional forty-eight hours, one set of slides were fixed in methanol, dried, and stained with Giemsa stain. Fresh medium and drug were added to a parallel set of chamber slides and incubated for another 48 hours before staining. […] Microscopic inspection permitted determination of % of infected macrophages and the number of amastigotes per 100 macrophages. The IC50 value is that concentration of drug that reduces the amastigote number by 50% relative to drug-free controls. Results also were obtained in parallel fashion with macrophages.
# Intracellular amastigote studies. […] Because the amastigote stage is the only relevant clinical form of the parasites, we examined the activity of the nitrogenated xanthones against the heme-auxotrophic, intracellular amastigote form of L. mexicana. Stationary promastigotes of L. mexicana M379 rapidly invaded murine peritoneal macrophages obtained from BALB/c mice and incubated at 35° C. producing heavily burdened cells with 10 to 50 amastigotes per macrophage within 24 hours. An experiment was performed to investigate the ability of selected xanthones to reduce the number of intracellular amastigotes using this model. The IC50 value is that concentration of drug required to reduce the intracellular parasite burden by 50% relative to a drug-free control chamber. We tested the xanthone series against amastigote-infected murine peritoneal macrophages. Macrophages were seeded into Labtek chamber slides (25,000 per well/8 chamber slide) and allowed to incubate overnight in Dulbecco's Modified Eagle Medium (DMEM) supplemental with 10% fetal calf serum. On the next day the cells were infected with L. mexicana promastigotes at an MOI of 5:1 and then incubated for 24 hours at 35° C. After incubation, the monolayers were washed with buffer and medium containing varying concentrations of each xanthone (0 to 10 μM) was added to each chamber. After 48 hours of incubation (i.e., Day 3 of the experiment) one set of slides was removed, fixed with methanol, and stained with Giemsa. For another set of slides, we replenished the culture medium, added fresh drug to each well as appropriate, and then incubated the chambers for another 48 hours before staining with Giemsa. IC50 values were then averaged for 3 separate experiments and the results are presented in Table 4 and graphically in FIG. 7. […] The IC50 values recorded for C5 and C6 exposure for 96 hours of treatment were 6 nM and 2 nM.
# P. falciparum W2 strain = test: antimalarial activity against multidrug resistant W2 strain; assay type: cell-based, Plasmodium falciparum
# Procedure: A decision was made to retain the oxygen atom (a conjugatively electron-donating species) as a bridge for an R-group containing the protonatable nitrogen. […] For comparative purposes, the straight-chain di-substituted series from C2 to C8 (i.e., excepting C7), each with a terminal diethylamino group was prepared. Shown in Table 4 is the remarkable relationship between chain length and antimalarial activity within the series . . . and the extraordinary potency of the C5 (3,6-bis-ω-diethylaminoamyloxyxanthone) and C6 (3,6-bis-ω-diethylaminohexyloxyxanthone) congeners.
# Leishmania donovani [4] = test: anti-Leishmania activity, promastigote radiolabeled thymidine uptake assay; assay type: cell-based
# Procedure: Leishmania donovani was cultivated in Schneider's medium (Gibco, Grand Island, N.Y.) according to the methods described by Grogl et al. (1992). The in vitro susceptibility of L. donovani to Formula X1 compounds was determined using the radiolabeled thymidine uptake assay essentially as described by Grogl et al. (1992). Briefly, promastigotes were cultivated at 25° C. in Schneider's medium supplemented with 20% inactivated fetal calf serum and 100 μg/mL of gentamicin. Cells were maintained in log phase by seeding at 1×10^6/mL with subculturing when cultured densities approached 4×10^7/mL before reaching their maximal density. For the assay, early log phase promastigotes were counted on a hemacytometer and resuspended at a concentration of 1-2×10^6 cell/mL in assay media (Schneider's medium plus 10% fetal bovine serum). Ten-fold serial dilutions of each test compound were prepared as described above and added to 180 μL of the parasite suspension. After incubation for 24 hours at 25° C., methyl-^3H-thymidine was added to each sample for a final concentration of 1-2 μCi per well. Each sample was then incubated for an additional 18 hours prior to harvesting. After this incubation time, each sample was aspirated onto a filter mat, washed thoroughly with deionized water, dried and then counted in a scintillation counter with scintillation cocktail. […]
# Leishmania donovani [5] = details: Table 2; literature reported value; cited from earlier work
# [6] = tested on: malaria Plasmodium parasites; details: rufigallol combined with exifone; cited from earlier work
# [7] = Plasmodium falciparum, D6, Table 3, read-out: IC50 μM, P. falciparum clone D6
# [8] = Table 3, 25 μM heme, pH 5.2, 37° C., 2 hours, average of at least two determinations, read-out: IC50, μM in vitro heme polymerization
# [9] = Plasmodium falciparum, D6, Table 4, average of 2 experiments in triplicate, 72 hour assay, read-out: IC50 μM* P. falciparum D6
# [10] = Leishmania mexicana, Macrophage, 48 h, read-out: IC50 μM** L. mexicana
# [11] = Leishmania mexicana, Macrophage, read-out: IC50, anti-leishmanial activity
# [12] = Leishmania mexicana, Macrophage, intracellular amastigote method, read-out: IC50, anti-leishmanial activity
# [13] = P. falciparum D6, read-out: IC50, anti-malarial activity
# [14] = Table 4, average of 2 experiments in triplicate, 72 hour assay, read-out: IC50 μM* P. falciparum D6
# [15] = 96 hours of treatment, peritoneal macrophages, read-out: IC50, L. mexicana amastigotes
# [16] = Table 4, 48 hours of drug exposure, reduction of amastigote burden by 50%, read-out: IC50 μM** L. mexicana
# [17] = Plasmodium falciparum, D6, Table 1, reproduced from U.S. Pat. No. 5,977,077, read-out: IC50, μM vs. Plasmodium
compound,measurement,setting,value
"O=c1c2cc(O)c(O)c(O)c2oc2c(O)c(O)c(O)cc12 [2,3,4,5,6,7-hexahydroxyxanthone]",IC50,[1]; [7],0.1 µM
same,IC50,Candida albicans,~10 µg/mL
same,IC50,[2]; [8],1.4 µM
"CCN(CC)CCOc1ccc2c(=O)c3ccc(OCCN(CC)CC)cc3oc2c1 [36-DEAE-X, 3,6-bis-β-(N,N-diethylamino)ethoxy-xanthone]",IC50,[1]; [9],2.2 µM
same,IC50,[3]; [10],~1.25 µM
"CCN(CC)CCCOc1ccc2c(=O)c3ccc(OCCCN(CC)CC)cc3oc2c1 [36-DEAP-X, 3,6-bis-γ-(N,N-diethylamino)propoxy-xanthone]",IC50,[1]; [9],1.5 µM
same,IC50,[3]; [10],0.5 µM
"O=c1c2ccc(O)c(O)c2oc2c(O)c(O)c(O)cc12 [2,3,4,5,6-pentahydroxyxanthone]",IC50,[1]; [7],0.4 µM
same,IC50,[3]; [11],~1 µg/mL
same,IC50,[3]; [12],~5 µM
same,IC50,Candida albicans,~10 µg/mL
same,IC50,[2]; [8],1.2 µM
same,IC50,"[2]; text b143, read-out: IC50, inhibition of heme polymerization",1.2 µM
"CCN(CC)CCCCCCOc1ccc2c(=O)c3ccc(OCCCCCCN(CC)CC)cc3oc2c1 [36-DEAHexyl-X, 3,6-bis-(N,N-diethylamino)-hexyloxy-xanthone]",IC50,[1]; [13],~0.1 µM
same,IC50,[1]; [14],0.075 µM
same,IC50,[3]; [15],0.002 µM
same,IC50,[3]; [16],0.02 µM
same,degree of potency against W2 compared with D6,P. falciparum W2 strain,the same
"O=c1c2cc(O)c(O)cc2oc2cc(O)c([C@@H]3O[C@H](CO)[C@@H](O)[C@H](O)[C@H]3O)c(O)c12 [Mangiferin, reference compound]",IC50,[1]; [17],50 µM
same,IC50,"Leishmania donovani [4]; Table 2, read-out: IC50 mg/ml for Leishmania",> 0.05 mg/mL
"CCN(CC)CCCCCOc1ccc2c(=O)c3ccc(OCCCCCN(CC)CC)cc3oc2c1 [36-DEAAmyl-X, 3,6-bis-ε-(N,N-diethylamino)-amyloxy-xanthone]",IC50,[1]; [13],~0.1 µM
same,IC50,[1]; [14],0.1 µM
same,IC50,[3]; [15],0.006 µM
same,IC50,[3]; [16],0.06 µM
same,degree of potency against W2 compared with D6,P. falciparum W2 strain,the same
Stibogluconate [Stibogluconate [Sodium Antimony (V) Gluconate]],IC50 mg/ml for Leishmania,Leishmania donovani [5],0.1 to 1.0 literature reported value mg/ml
"CCN(CC)CCCCOc1ccc2c(=O)c3ccc(OCCCCN(CC)CC)cc3oc2c1 [36-DEAB-X, 3,6-bis-δ-(N,N-diethylamino)butoxy-xanthone]",IC50,[1]; [9],0.65 µM
same,IC50,[3]; [10],0.2 µM
"O=C1c2cc(O)c(O)c(O)c2C(=O)c2cc(O)c(O)c(O)c21 [rufigallol, 1,2,3,5,6,7,-hexahydroxy-9,10-anthraquinone]",increase in potency against malaria Plasmodium parasites,[6],~350 fold
"COc1c(O)cc2oc3cc(O)c(CC=C(C)C)c(O)c3c(=O)c2c1CC=C(C)C [Mangostin, reference compound]",IC50,[1]; [17],5 µM
same,IC50,Leishmania donovani [4]; read-out: IC50 mg/ml for Leishmania,0.00041 mg/mL
same,IC50,[3]; [11],0.41 µg/mL
same,IC50,[3]; [12],1 µM
